Results taken from patent publication US8822468B2 (Novartis AG, priority 2008, dated 2014).

The compounds below were run against T1, cMET receptor tyrosine kinase (GST-cMET (969-1390)) (Homo sapiens, UniProt P08581) (assay: EPK cMET profiling assay (LanthaScreen TR-FRET antibody based kinase phosphorylation assay)). Conditions: purified recombinant GST-cMET (969-1390), 2 μM ATP, 50 nM Fluorescein-PolyEAY, 60 minutes at room temperature; read-out: c-Met IC50.
T1 construct: made in house
Type: biochemical
Procedure, shortened: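 Compounds tested at eight final concentrations from 10 down to 0.003 µM against affinity-purified GST-cMET (969-1390, 0.3 nM) with 2 µM ATP and 50 nM fluorescein-PolyEAY in Tris buffer with MgCl2 and MnCl2, 1 h at room temperature. After EDTA stop, phosphoproduct detected by LanthaScreen TR-FRET with Tb-PY20 antibody, end-point measurement.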

T1 sequence (P08581 969-1390): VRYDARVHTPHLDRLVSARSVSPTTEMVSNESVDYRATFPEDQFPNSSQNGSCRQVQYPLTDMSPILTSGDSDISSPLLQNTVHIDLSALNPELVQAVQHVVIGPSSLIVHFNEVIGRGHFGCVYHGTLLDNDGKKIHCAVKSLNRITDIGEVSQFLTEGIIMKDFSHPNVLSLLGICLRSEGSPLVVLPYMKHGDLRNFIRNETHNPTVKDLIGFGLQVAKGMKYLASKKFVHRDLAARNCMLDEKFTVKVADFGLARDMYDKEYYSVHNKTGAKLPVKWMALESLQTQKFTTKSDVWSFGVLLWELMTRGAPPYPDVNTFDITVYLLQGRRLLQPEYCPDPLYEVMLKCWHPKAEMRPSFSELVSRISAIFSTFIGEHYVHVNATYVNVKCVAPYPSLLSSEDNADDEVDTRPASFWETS

| Structure (SMILES) | IC50 [nM] |
| --- | --- |
| Cn1cc(-c2ccc3ncc(Cc4cn5ccnc5cc4F)n3n2)cn1 [Example 205, 3-(7-Fluoro-imidazo[1,2-a]pyridin-6-ylmethyl)-6-(1-methyl-1H-pyrazol-4-yl)-imidazo[1,2-b]pyridazine] | 47 |
| N#Cc1ccc2ncc(Cc3ccc4ncccc4c3)n2n1 [Example 208, 3-Quinolin-6-ylmethyl-imidazo[1,2-b]pyridazine-6-carbonitrile] | 52 |
| OCCn1cc(-c2ccc3ncc(Cc4ccc5ncccc5c4)n3n2)cn1 [Example 210, 2-[4-(3-Quinolin-6-ylmethyl-imidazo[1,2-b]pyridazin-6-yl)-pyrazol-1-yl]-ethanol] | 52 |
| CCn1cc(-c2ccc3ncc(Cc4ccc5ncccc5c4)n3n2)cn1 [Example 211, 6-[6-(1-Ethyl-1H-pyrazol-4-yl)-imidazo[1,2-b]pyridazin-3-ylmethyl]-quinoline] | 86 |
| c1cnc2ccc(Cc3cnc4ccc(-c5cn[nH]c5)nn34)cc2c1 [Example 212, 6-[6-(1H-Pyrazol-4-yl)-imidazo[1,2-b]pyridazin-3-ylmethyl]-quinoline] | 54 |
| OCCn1cc(-c2ccc3ncc(Cc4ccc5nccn5c4)n3n2)cn1 [Example 215, 2-[4-(3-Imidazo[1,2-a]pyridin-6-ylmethyl-imidazo[1,2-b]pyridazin-6-yl)-pyrazol-1-yl]-ethanol] | 130 |
| Cn1cnc2ccc(Cc3cnc4ccc(-c5cnn(CCO)c5)nn34)cc21 [Example 217, 2-{4-[3-(3-Methyl-3H-benzoimidazol-5-ylmethyl)-imidazo[1,2-b]pyridazin-6-yl]-pyrazol-1-yl}-ethanol] | 84 |
| OCCn1cc(-c2ccc3ncc(Cc4ccc(O)cc4F)n3n2)cn1 [Example 219, 3-Fluoro-4-{6-[1-(2-hydroxy-ethyl)-1H-pyrazol-4-yl]-imidazo[1,2-b]pyridazin-3-ylmethyl}-phenol] | 120 |
| OCCn1cc(-c2ccc3ncc(Cc4ccc(O)cc4)n3n2)cn1 [Example 220, 4-{6-[1-(2-Hydroxy-ethyl)-1H-pyrazol-4-yl]-imidazo[1,2-b]pyridazin-3-ylmethyl}-phenol] | 330 |
| CC(c1ccc2ncccc2c1Cl)c1cnc2ccc(-c3cnn(C4CCN(C)CC4)c3)nn12 (stereo not shown) [Example 224, 5-Chloro-6-(1-{6-[1-(1-methyl-piperidin-4-yl)-1H-pyrazol-4-yl]-imidazo[1,2-b]pyridazin-3-yl}-ethyl)-quinoline] | 28 |
| OCCn1cc(-c2ccc3ncc(Cc4ccc5ncccc5c4Cl)n3n2)cn1 [Example 226, 2-{4-[3-(5-Chloro-quinolin-6-ylmethyl)-imidazo[1,2-b]pyridazin-6-yl]-pyrazol-1-yl}-ethanol] | 25 |
| Clc1c(Cc2cnc3ccc(-c4cnn(C5CCNCC5)c4)nn23)ccc2ncccc12 [Example 227, 5-Chloro-6-[6-(1-piperidin-4-yl-1H-pyrazol-4-yl)-imidazo[1,2-b]pyridazin-3-ylmethyl]-quinoline] | 78 |
| CN1CCC(n2cc(-c3ccc4ncc(Cc5ccc6ncccc6c5Cl)n4n3)cn2)CC1 [Example 228, 5-Chloro-6-{6-[1-(1-methyl-piperidin-4-yl)-1H-pyrazol-4-yl]-imidazo[1,2-b]pyridazin-3-ylmethyl}-quinoline] | 99 |
| CC(=O)N1CCC(n2cc(-c3ccc4ncc(Cc5cc6cccnc6cc5F)n4n3)cn2)CC1 [Example 230, 1-(4-{4-[3-(7-Fluoro-quinolin-6-ylmethyl)-imidazo[1,2-b]pyridazin-6-yl]-pyrazol-1-yl}-piperidin-1-yl)-ethanone] | 27 |
| Fc1cc2ncccc2cc1Cc1cnc2ccc(-c3cnn(CCN4CCCC4)c3)nn12 [Example 231, 7-Fluoro-6-{6-[1-(2-pyrrolidin-1-yl-ethyl)-1H-pyrazol-4-yl]-imidazo[1,2-b]pyridazin-3-ylmethyl}-quinoline] | 26 |
| Fc1cc2ncccc2cc1Cc1cnc2ccc(-c3cnn(CCN4CCOCC4)c3)nn12 [Example 232, 7-Fluoro-6-{6-[1-(2-morpholin-4-yl-ethyl)-1H-pyrazol-4-yl]-imidazo[1,2-b]pyridazin-3-ylmethyl}-quinoline] | 66 |
| COCCOCCn1cc(-c2ccc3ncc(Cc4cc5cccnc5cc4F)n3n2)cn1 [Example 233, 7-Fluoro-6-(6-{1-[2-(2-methoxy-ethoxy)-ethyl]-1H-pyrazol-4-yl}-imidazo[1,2-b]pyridazin-3-ylmethyl)-quinoline] | 120 |
| COCCn1cc(-c2ccc3ncc(Cc4cc5cccnc5cc4F)n3n2)cn1 [Example 234, 7-Fluoro-6-{6-[1-(2-methoxy-ethyl)-1H-pyrazol-4-yl]-imidazo[1,2-b]pyridazin-3-ylmethyl}-quinoline] | 110 |
| c1cnc2ccc(Cc3cnc4ccc(-c5cnn(CCN6CCC6)c5)nn34)cc2c1 [Example 235, 6-{6-[1-(2-Azetidin-1-yl-ethyl)-1H-pyrazol-4-yl]-imidazo[1,2-b]pyridazin-3-ylmethyl}-quinoline] | 220 |
| c1cnc2ccc(Cc3cnc4ccc(-c5cnn(CCN6CCCC6)c5)nn34)cc2c1 [Example 236, 6-{6-[1-(2-Pyrrolidin-1-yl-ethyl)-1H-pyrazol-4-yl]-imidazo[1,2-b]pyridazin-3-ylmethyl}-quinoline] | 370 |
| CNCCn1cc(-c2ccc3ncc(Cc4ccc5ncccc5c4)n3n2)cn1 [Example 237, Methyl-{2-[4-(3-quinolin-6-ylmethyl-imidazo[1,2-b]pyridazin-6-yl)-pyrazol-1-yl]-ethyl}-amine] | 170 |
| CN1CCC(n2cc(-c3ccc4ncc(Cc5ccc6ncccc6c5)n4n3)cn2)CC1 [Example 238, 6-{6-[1-(1-Methyl-piperidin-4-yl)-1H-pyrazol-4-yl]-imidazo[1,2-b]pyridazin-3-ylmethyl}-quinoline] | 230 |
| C[C@@H](c1ccc2ncccc2c1)c1cnc2ccc(-c3cnn(C4CCN(C)CC4)c3)nn12 [Example 239, 6-((S)-1-{6-[1-(1-Methyl-piperidin-4-yl)-1H-pyrazol-4-yl]-imidazo[1,2-b]pyridazin-3-yl}-ethyl)quinoline] | 31 |
| C[C@@H](c1ccc2ncccc2c1)c1cnc2ccc(-c3cn[nH]c3)nn12 [Example 240, 6-{(S)-1-[6-(1H-Pyrazol-4-yl)-imidazo[1,2-b]pyridazin-3-yl]-ethyl}-quinoline] | 8.4 |
| Cn1cc(-c2ccc3ncc(Cc4cc5cccnc5cc4Cl)n3n2)cn1 [Example 241, 7-Chloro-6-[6-(1-methyl-1H-pyrazol-4-yl)-imidazo[1,2-b]pyridazin-3-ylmethyl]-quinoline] | 37.5 |
| CCn1cc(-c2ccc3ncc(Cc4cc5cccnc5cc4Cl)n3n2)cn1 [Example 242, 7-Chloro-6-[6-(1-ethyl-1H-pyrazol-4-yl)-imidazo[1,2-b]pyridazin-3-ylmethyl]-quinoline] | 86 |
| OCCn1cc(-c2ccc3ncc(Cc4cc5cccnc5cc4Cl)n3n2)cn1 [Example 243, 2-{4-[3-(7-Chloro-quinolin-6-ylmethyl)-imidazo[1,2-b]pyridazin-6-yl]-pyrazol-1-yl}-ethanol] | 37 |
| CC(C)(C)OC(=O)N1CCC(n2cc(-c3ccc4ncc(Cc5c(F)cc6ncccc6c5F)n4n3)cn2)CC1 [Example 244, 4-{4-[3-(5,7-Difluoro-quinolin-6-ylmethyl)-imidazo[1,2-b]pyridazin-6-yl]-pyrazol-1-yl}-piperidine-1-carboxylic acid tert-butyl ester] | 87 |
